The values below come from article PMC10649274 (International Journal of Molecular Sciences, 2023).

Entries after “also recorded” stand apart in the source; their conditions may differ. Read-outs that look alike come from different tables or passages of the source.

The test system of assay [1] is native NMDA receptors. Description: Whole-cell patch clamp of NMDA plus glycine induced currents in isolated CA1 pyramidal neurons. It is filed as cell-based, rat. The settings on record: for change of inhibition with increase of NMDA concentration / inhibition at 1 mM NMDA: −30 mV. As for the experimental part:
The rats were anesthetised with sevoflurane and then decapitated. The brains were brought out quickly and cooled to 2–4 °C. […] All experiments were performed at room temperature.
Vibrodissociation method was used to free CA1 pyramidal neurons from slices. This method allows for isolating cells without enzymatic treatment and keeping them in more native state. Pyramidal cells were isolated from the stratum pyramidale and distinguished from non-pyramidal cells on the basis of pyramidal-like somata and preserved apical dendrites.
To record membrane currents in response to applications of NMDA and glycine, the whole-cell configuration of patch clamp technique was used. Series resistance (<20 MΩ) was compensated by 70–80% and monitored during experiments. Only cells with stable holding currents were used in further analysis. The current signals were amplified using EPC-8 (HEKA Electronics, Lambrecht, Germany), filtered at 5 kHz, sampled, and stored on a personal computer. RSC-200 (BioLogic Science Instruments, Claix, France) perfusion system was used to apply the drugs under computer control. […] The pipettes with resistance of 2–5 MΩ were filled with the following solution (in mM): CsF 100, CsCl 40, NaCl 5, CaCl2 0.5, EGTA 5, HEPES 10 (pH adjusted to 7.2 with CsOH). […] Other reagents were purchased from MedChemExpress (Monmouth Junction, NJ, USA), Sigma (St. Louis, MO, USA), or Tocris Bioscience (Bristol, UK).
NMDA receptors were activated with 100 µM NMDA plus 10 µM glycine unless otherwise stated. […] Kinetics of transient processes of more than 20 ms duration were approximated with single or double exponential functions. In case of double exponential fitting, the weighted time constant was used.

Assay [2] concerns native NMDA receptors. Conditions: cited from earlier work.
In assay [3] the target is native NMDA receptors. Conditions: cited from earlier work. The source holds these as a separate data set.
For assay [4], the target named is native NMDA receptors. Description: Analysis of voltage dependence of NMDA receptor block (Woodhull model with voltage-independent component, Equation (2)). It is filed as cell-based, rat. As for the experimental part: NMDA receptors were activated with 100 µM NMDA plus 10 µM glycine unless otherwise stated. The percentages of blocking of the steady-state or peak currents by different drug concentrations were measured at −80, −30 or +30 mV holding voltages. Kinetics of transient processes of more than 20 ms duration were approximated with single or double exponential functions. In case of double exponential fitting, the weighted time constant was used.
The voltage dependence of compounds’ action was analyzed with the classical Woodhull model with the addition of a voltage-independent component. […] Kb is the affinity of a drug for the channel, and δ is the electrical depth of the binding site. The δ value reflects the fraction of membrane electric field that the charged blocking molecule crosses on its pathway between the external media and the binding site in the channel.
Thus, we deduced Equation (2), taking it into account and assuming that the binding to the deep and shallow site is independent:(2) B=100−100/(1+C/(Kvd∗exp〖Fzδ/RTV〗)+C/Kvi+(C∗C)/((Kvd∗exp〖Fzδ/RTV〗∗Kvi))
In this equation, Kvd is the affinity of the drug to the deep site, Kvi—the affinity of the drug to the shallow site, and other parameters are the same as in Equation (1).
All experimental data are presented as the mean ± SD estimated from at least four experiments (cells). Significance of the effects was tested with t-tests. Differences were considered significant at p < 0.05. Concentration dependencies were approximated with Hill equation. Voltage dependencies were approximated with Equation (2). […] Approximation error values were taken as the precision measures.

Assay [5] relates to rat retinal excitotoxicity model. Conditions: cited from earlier work.
The mark [6] stands for this setting: −80 mV holding voltage, native NMDA receptors, earlier papers of the authors, read-out: IC50, −80 mV.
[7] abbreviates: Equation (2) fit, zδ free, reanalysis of the authors' earlier voltage dependence data [16],[17], read-out: Kvd.
[8] abbreviates: Equation (2) fit, zδ free, reanalysis of the authors' earlier voltage dependence data [16],[17], read-out: Kvi.
Setting [9] is: Equation (2) with fixed zδ (0.55 mono-, 1.1 dicationic), reanalysis of earlier data [16],[17], read-out: Kvd, fixed zδ (converted).
The mark [10] stands for this setting: Equation (2) with fixed zδ (0.55 mono-, 1.1 dicationic), reanalysis of earlier data [16],[17], read-out: Kvi, fixed zδ (converted).
Setting [11] is: fit with consensus zδ, read-out: binding constant for the deep site (Kvd).

As to `NC(CCCP(=O)(O)O)C(=O)O` [D-AP5], in the assay on native NMDA receptors [1] (5 µM, high NMDA concentrations), the “inhibition at high NMDA concentrations” value is listed as “became weak, decaying to zero”.
For the compound `N=C(N)c1ccc(OCCCCCOc2ccc(C(=N)N)cc2)cc1` [Pentamidine], in the assay on native NMDA receptors [2], the “voltage dependence of NMDA receptor inhibition” value is listed as “strongly voltage-dependent”. On native NMDA receptors [3], the “IC50 (NMDA receptor antagonism)” value is on record as “submicromolar range”. For the same compound, in the assay with native NMDA receptors [3], the “type of channel block (interaction with channel gate)” value (“type of channel block” for short) is “partial trapping”. Further, the IC50 (usually the concentration that inhibits the measured activity by half) on native NMDA receptors [3] (setting [6]) is 0.41 ± 0.08 µM. Moreover, the Kd was 60 ± 25 µM at native NMDA receptors [4] (setting [7]), 8 ± 1 µM at native NMDA receptors [4] (setting [8]), 27 µM at native NMDA receptors [4] (setting [9]) and 10 µM at native NMDA receptors [4] (setting [10]). In the assay on native NMDA receptors [1] (holding voltage not stated), the “change of inhibition with increase of NMDA concentration from 30 to 1000 µM” value (“change of inhibition with increase … to 1000 µM” below) is “not attenuated significantly”.
For `N=C(N)c1ccc(-c2ccc(-c3ccc(C(=N)N)cc3)o2)cc1` [Furamidine], the “voltage dependence of NMDA receptor inhibition” value in the assay on native NMDA receptors [2] is recorded as “strongly voltage-dependent”. Moreover, the “type of channel block” value with native NMDA receptors [3] is given as “foot-in-the-door”. Moreover, the IC50 on native NMDA receptors [3] (setting [6]) is 0.64 ± 0.13 µM. Besides, the Kd was 20 ± 5 µM at native NMDA receptors [4] (setting [7]), 3.4 ± 0.4 µM on native NMDA receptors [4] (setting [8]), 21.8 µM at native NMDA receptors [4] (setting [9]) and 3.3 µM at native NMDA receptors [4] (setting [10]). Further, the “change of inhibition with increase … to 1000 µM” value in the assay on native NMDA receptors [1] (holding voltage not stated) is listed as “not attenuated significantly”.
With `CC(C(O)c1ccc(O)cc1)N1CCC(Cc2ccccc2)CC1` (centres unmarked) [Ifenprodil, ifenprodil], the “share of high-affinity component in inhibition of NMDA receptor currents” value in the assay with native NMDA receptors [3] (CA1 pyramidal cells, biphasic concentration dependence) is “approximately 60%”.
For the compound `N=C(N)c1ccc(-c2cc3ccc(C(=N)N)cc3[nH]2)cc1` [DAPI], in the assay with native NMDA receptors [2], the “voltage dependence of NMDA receptor inhibition” value is on record as “Completely voltage-independent”. The “type of channel block” value in the assay on native NMDA receptors [3] is reported as “foot-in-the-door”. Moreover, the IC50 on native NMDA receptors [3] (setting [6]) is 3.1 ± 0.6 µM. Moreover, the Kd was 5000 µM at native NMDA receptors [4] (setting [9]), 3.16 µM on native NMDA receptors [4] (setting [10]) and above 1000 µM at native NMDA receptors [4] (setting [11]). In addition, the “change of inhibition with increase of NMDA concentration” value with native NMDA receptors [1] is “agonist-dependent”. Moreover, in the assay with native NMDA receptors [1], the “inhibition at 1 mM NMDA” value was “remained significant”. In addition, the “change of inhibition with increase … to 1000 µM” value in the assay on native NMDA receptors [1] (−80 mV) was “agonist-dependent”.
With `CC12CC3CC(C)(C1)CC(N)(C3)C2` [Memantine], the IC50 on native NMDA receptors [3] (−30 mV, 1 mM Mg2+, read-out: IC50 in the presence of magnesium) is 6.4 ± 0.5 µM.
Regarding `CN(C)C(=O)COC(=O)Cc1ccc(OC(=O)c2ccc(NC(=N)N)cc2)cc1` [Camostat], the “inhibition of native NMDA receptors” value in the assay with native NMDA receptors [3] is reported as “low activity; also recorded: practically ineffective”. Moreover, the IC50 at native NMDA receptors [3] (setting [6]) was above 100 µM. Besides, in assay [5], the retinal protection result is “did not demonstrate retinal protection activities”.
For `N=C(N)c1ccc(/N=N/Nc2ccc(C(=N)N)cc2)cc1` [Diminazene], in the assay with native NMDA receptors [2], the “voltage dependence of NMDA receptor inhibition” value was “complex voltage dependence”. Besides, in the assay on native NMDA receptors [3], the “type of channel block” value is recorded as “foot-in-the-door”. Also, the IC50 on native NMDA receptors [3] (setting [6]) is 13 ± 3 µM. Moreover, the Kd is around 600 µM at native NMDA receptors [4] (setting [7]); 14 ± 2 µM at native NMDA receptors [4] (setting [8]); 1500 µM at native NMDA receptors [4] (setting [9]); 14 ± 2 µM at native NMDA receptors [4] (setting [10]); above 1000 µM on native NMDA receptors [4] (setting [11]). Also, in the assay on native NMDA receptors [1], the “change of inhibition with increase of NMDA concentration” value is “significant attenuation”. Also, the “inhibition at 1 mM NMDA” value in the assay on native NMDA receptors [1] is reported as “remained significant”. Moreover, the “change of inhibition with increase … to 1000 µM” value in the assay on native NMDA receptors [1] (−80 mV) is “did not differ significantly”.
For `CCOC(=O)c1ccc(OC(=O)CCCCCNC(=N)N)cc1` [Gabexate], the “voltage dependence of NMDA receptor inhibition” value in the assay on native NMDA receptors [2] is given as “Completely voltage-independent”. In the assay on native NMDA receptors [3], the “inhibition of native NMDA receptors” value is “inhibited native NMDA receptors”. Further, the “nature of voltage-independent inhibition” value with native NMDA receptors [3] was “agonist-dependent but non-competitive; also recorded: mostly voltage-independent and not competitive”. In the assay with native NMDA receptors [3], the “type of channel block” value is “did not demonstrate any signs of a “foot-in-the-door” or trapping channel block”. The IC50 on native NMDA receptors [3] (setting [6]) was 16 ± 3 µM. In addition, the Kd on native NMDA receptors [4] (setting [7]) is around 300 µM; at native NMDA receptors [4] (setting [8]), 29 ± 8 µM; on native NMDA receptors [4] (setting [9]), 800 µM; on native NMDA receptors [4] (setting [10]), 25 µM. Moreover, the retinal protection entry in assay [5] is “did not demonstrate retinal protection activities”.
